Experimental data reported in patent publication US9701628B2, “12-epi pleuromutilins” (NABRIVA THERAPEUTICS AG, priority 2014, dated 2017).
Values after ≈ are worked out from the molar mass of the structure shown. Where a name gives a salt, the structure may show the parent alone. Read-outs that look alike come from different tables or passages of the source.

Assays:
[1] = tested on: Staphylococcus aureus ATCC 49951; test: MIC by broth microdilution (CLSI) against Staphylococcus aureus ATCC 49951; type: cell-based
Experimental: (§1) The in vitro activity against aerobic bacteria was determined by Broth Microdilution Test according to the Clinical and Laboratory Standards Institute (CLSI, former NCCLS) Document M7-A9 Vol 32, No 2 “Methods for Dilution Antimicrobial Susceptibility Tests for Bacteria that Grow Aerobically; Approved Standard—Ninth Edition (2012)”; and the test against anaerobic bacteria was performed by Agar Dilution Test according to the Clinical and Laboratory Standards Institute (CLSI, former NCCLS), Document, M11-A8, Vol. 32, No. 5: “Methods for Antimicrobial Susceptibility Testing of Anaerobic Bacteria; Approved Standard—Eighth Edition (2012)”. Performance standards and interpretive criteria followed the CLSI Document, M100-S23: “Performance Standards for Antimicrobial Susceptibility Testing; Twenty-Third Informational Supplement” (2013). The in vivo activity was tested by the septicaemia mouse model against Staphylococcus aureus and Escherichia coli.
(§2) The antibacterial activity expressed as minimal inhibitory concentration (MIC) was determined according to the approved standard reference recommendations of CLSI (former NCCLS) as described in the description of the application.

[2] = tested on: Escherichia coli ATCC25922; test: MIC by broth microdilution (CLSI) against Escherichia coli ATCC 25922; type: cell-based
Experimental: as §1, §2

[3] = Staphylococcus aureus ATCC 49951, in vitro
[4] = Escherichia coli ATCC25922, in vitro
[5] = ATCC49951, Staphylococcus aureus ATCC 49951, in vitro, read-out: MIC
[6] = Escherichia coli ATCC25922, in vitro, read-out: MIC

Work on `CC1C(O)C(C)(CNCCCN)CC(OC(=O)CSC2CCC(N)CC2O)C2(C)C(C)CCC13CCC(=O)C32.Cl.Cl.Cl` [Example C3, 14-O-{[(1R,2R,4R)-4-Amino-2-hydroxy-cyclohexylsulfanyl]-acetyl}-12-desvinyl-12-[(3-amino-propylamino)-methyl] mutilin trihydrochlorid, reference compound] yielded an MIC [1, 3] of 16 µg/mL and an MIC [2, 4] greater than 32 µg/mL.

`CC1C(O)C(C)(CNCc2ccc(CN)cc2)CC(OC(=O)CSCCO)C2(C)C(C)CCC13CCC(=O)C32.Cl.Cl` (stereo not drawn) [Example 64, 12-epi-12-desvinyl-14-O-[(2-Hydroxy-ethylsulfanyl)-acetyl]-12-[(4-aminomethyl-benzylamino)-methyl] mutilin dihydrochloride] gave an MIC [1, 3] of 0.5 µg/mL and an MIC [2, 4] of 4 µg/mL.

`C[C@@H]1CC[C@@]23CCC(=O)[C@H]2[C@]1(C)[C@H](OC(=O)CSC1CCCNCC1)C[C@](C)(CCNc1ccc(CN)cc1)[C@@H](O)[C@@H]3C` (stereo partly drawn) [Example 143, 12-epi-12-desvinyl-14-O-[(Azepan-4-ylsulfanyl)-acetyl]-12-[(4-aminomethyl-phenylamino)-ethyl] mutilin trihydrochloride] was tested, and the MIC [1, 5] was 0.125 µg/mL and the MIC [2, 6] was 4 µg/mL.

`C=C[C@]1(C)C[C@@H](OC(=O)CS[C@@H]2C[C@H]3CC[C@@H](C2)N3C)[C@]2(C)[C@H](C)CC[C@]3(CCC(=O)[C@H]32)[C@@H](C)[C@@H]1O` [Retapamulin, retapamulin, reference compound] gave an MIC ([1]; Staphylococcus aureus, ATCC49951) of no more than 0.03 µg/mL and an MIC ([2]; Escherichia coli, ATCC25922) of 32 µg/mL (≈ 61.8 µM).

In the case of `C[C@@H]1CC[C@@]23CCC(=O)[C@H]2[C@]1(C)[C@H](OC(=O)CSC1CCC(CN)CC1)C[C@](C)(CNCCCCCCN)[C@@H](O)[C@@H]3C` (stereo partly drawn) [Example 47, 12-epi-12-desvinyl-14-O-{[(4-Aminomethyl-cyclohexyl)-sulfanyl]-acetyl}-12-[(6-amino-hexylamino)-methyl] mutilin trihydrochloride], the MIC [1, 5] was no more than 0.03 µg/mL and the MIC [2, 6] was 0.5 µg/mL.

Work on `CC1C(O)C(C)(CNCc2cc(F)c(CN)cc2F)CC(OC(=O)CSc2ccc(CN)cn2)C2(C)C(C)CCC13CCC(=O)C32.Cl.Cl.Cl.Cl` (stereo not drawn) [Example 103, 12-epi-12-desvinyl-14-O-{[5-Aminomethyl-pyridin-2-yl-sulfanyl]-acetyl}-12-[(4-aminomethyl-2,5-difluoro-benzylamino)-methyl] mutilin tetrahydrochloride] yielded an MIC [1, 3] of 0.5 µg/mL and an MIC [2, 4] of 4 µg/mL.

Compound `C[C@@H]1CC[C@@]23CCC(=O)[C@H]2[C@]1(C)[C@H](OC(=O)CSc1cccc(CN)c1)C[C@](C)(CNCCCN)[C@@H](O)[C@@H]3C.Cl.Cl.Cl` [Example 86, 12-epi-12-desvinyl-14-O-[(3-Aminomethyl-phenylsulfanyl)-acetyl]-12-[(3-amino-propylamino)-methyl] mutilin trihydrochloride] has an MIC [1, 3] of 0.06 µg/mL and an MIC [2, 4] of 0.5 µg/mL.

`CC1C(O)C(C)(CNCc2ccc(CN)cc2)CC(OC(=O)CSc2ccc(CC(=O)NCCCN)cc2)C2(C)C(C)CCC13CCC(=O)C32.Cl.Cl.Cl` (stereo not drawn) [Example 9, 12-epi-12-desvinyl-14-O-{{4-[(3-Amino-propylcarbamoyl)-methyl]-phenylsulfanyl}-acetyl}-12-[(4-aminomethyl-benzylamino)-methyl] mutilin trihydrochloride] was tested, and the MIC [1, 3] was “≦0.03 μg/mL” and the MIC [2, 4] was 0.5 µg/mL.

`C[C@@H]1CC[C@@]23CCC(=O)[C@H]2[C@]1(C)[C@H](OC(=O)CSc1ccc(CCCN)cc1)C[C@](C)(CNCCCCCCN)[C@@H](O)[C@@H]3C` [Example 48, 12-epi-12-desvinyl-14-O-{[4-(3-Amino-propyl)-phenylsulfanyl]-acetyl}-12-[(6-amino-hexylamino)-methyl] mutilin trihydrochloride] was tested, and the MIC [1, 5] was no more than 0.03 µg/mL and the MIC [2, 6] was 0.25 µg/mL.

`C[C@@H]1CC[C@@]23CCC(=O)[C@H]2[C@]1(C)[C@H](OC(=O)CSc1ccc(CC(=O)NCCCN)cc1)C[C@](C)(CNCCCN)[C@@H](O)[C@@H]3C` [Example 1, 12-epi-12-desvinyl-14-O-{{4-[(3-Amino-propylcarbamoyl)-methyl]-phenylsulfanyl}-acetyl}-12-[(3-amino-propylamino)-methyl] mutilin trihydrochloride] gave an MIC [1, 5] of no more than 0.03 µg/mL and an MIC [2, 6] of 0.5 µg/mL.

With `C[C@@H]1CC[C@@]23CCC(=O)[C@H]2[C@]1(C)[C@H](OC(=O)CSC1CCCNCC1)C[C@](C)(CNCCCCCCN)[C@@H](O)[C@@H]3C` (stereo partly drawn) [Example 130, 12-epi-12-desvinyl-14-O-[(Azepan-4-ylsulfanyl)-acetyl]-12-[(6-amino-hexylamino)-methyl] mutilin trihydrochloride] the MIC [1, 5] was no more than 0.03 µg/mL and the MIC [2, 6] was 0.5 µg/mL.

In the case of `CC1C(O)C(C)(CNCCCCCCN)CC(OC(=O)CSc2cccc(CO)c2)C2(C)C(C)CCC13CCC(=O)C32.Cl.Cl` (stereo not drawn) [Example 54, 12-epi-12-desvinyl-14-O-[(3-Hydroxymethyl-phenylsulfanyl)-acetyl]-12-[(6-amino-hexylamino)-methyl] mutilin dihydrochloride], the MIC [1, 3] was 0.125 µg/mL and the MIC [2, 4] was 4 µg/mL.

`C[C@@H]1CC[C@@]23CCC(=O)[C@H]2[C@]1(C)[C@H](OC(=O)CSc1ccc(CN)cn1)C[C@](C)(CNCc1ccc(CN)cc1)[C@@H](O)[C@@H]3C` [Example 98, 12-epi-12-desvinyl-14-O-{[5-Aminomethyl-pyridin-2-yl-sulfanyl)]-acetyl}-12-[(4-aminomethyl-benzylamino)-methyl] mutilin tetrahydrochloride] showed an MIC [1, 5] of 0.125 µg/mL and an MIC [2, 6] of 0.5 µg/mL.

`C[C@@H]1CC[C@@]23CCC(=O)[C@H]2[C@]1(C)[C@H](OC(=O)CSc1ccc(C(=O)NCc2ccc(CN)cc2)cc1)C[C@](C)(CNCCCCCCN)[C@@H](O)[C@@H]3C` [Example 23, 12-epi-12-desvinyl-14-O-{[4-(4-Aminomethyl-benzylcarbamoyl)-phenylsulfanyl]-acetyl}-12-[(6-amino-hexylamino)-methyl] mutilin trihydrochloride] showed an MIC [1, 5] of no more than 0.03 µg/mL and an MIC [2, 6] of 1 µg/mL.

`C=C[C@@]1(C)C[C@@H](OC(=O)CSc2nnc(N)[nH]2)[C@]2(C)[C@H](C)CC[C@]3(CCC(=O)[C@H]32)[C@@H](C)[C@@H]1O.Cl` [Example C1, 12-epi-14-O-{[(5-Amino-4H-1,2,4-triazol-3-yl)-sulfanyl]-acetyl} mutilin hydrochloride, reference compound] gave an MIC [1, 3] of 0.5 µg/mL and an MIC [2, 4] of 128 µg/mL.

In the case of `C[C@@H]1CC[C@@]23CCC(=O)[C@H]2[C@]1(C)[C@H](OC(=O)CSC1CCN(C(=O)CN)CC1)C[C@](C)(CNCc1ccc(CN)cc1)[C@@H](O)[C@@H]3C` [Example 78, 12-epi-12-desvinyl-14-O-{[1-(2-Amino-acetyl)-piperidin-4-yl-sulfanyl)]-acetyl}-12-[(4-aminomethyl-benzylamino)-methyl] mutilin trihydrochloride], the MIC [1, 5] was 0.5 µg/mL and the MIC [2, 6] was 2 µg/mL.

Compound `CC1C(O)C(C)(C=Cc2ccc(CNCCN)c(F)c2)CC(OC(=O)CSC2CCCNCC2)C2(C)C(C)CCC13CCC(=O)C32.Cl.Cl.Cl` (stereo not drawn) [Example 157, 12-epi-12-desvinyl-14-O-[(Azepan-4-ylsulfanyl)-acetyl]-12-((E)-2-{4-[(2-amino-ethylamino)-methyl]-3-fluoro-phenyl}-ethenyl) mutilin trihydrochlorid] has an MIC [1, 3] of 0.25 µg/mL and an MIC [2, 4] of 4 µg/mL.

`C[C@@H]1CC[C@@]23CCC(=O)C2[C@]1(C)[C@H](OC(=O)CSC1CCC(CNC(=O)CN)CC1)C[C@](C)(CCc1ccc(CNCCN)cc1)[C@@H](O)[C@@H]3C` (stereo partly drawn) [Example 152, 12-epi-12-desvinyl-14-O-{{4-[(2-Amino-acetylamino)-methyl]-cyclohexylsulfanyl}-acetyl}-12-[2-{4-[(2-amino-ethylamino)-methyl]-phenyl}-ethyl) mutilin trihydrochloride] was tested, and the MIC [1, 5] was 0.25 µg/mL and the MIC [2, 6] was 4 µg/mL.

`C[C@@H]1CC[C@@]23CCC(=O)[C@H]2[C@]1(C)[C@H](OC(=O)CSC1CCN(C(=O)CN)CC1)C[C@](C)(CCCCCCCCN)[C@@H](O)[C@@H]3C` [Example 146, 12-epi-12-desvinyl-14-O-{[1-(2-Amino-acetyl)-piperidin-4-yl-sulfanyl]-acetyl}-2-(8-amino-octyl) mutilin dihydrochloride] gave an MIC [1, 5] of no more than 0.03 µg/mL and an MIC [2, 6] of 8 µg/mL.

In the case of “12-epi-12-desvinyl-14-O-{[1-(2-Amino-acetyl)-piperidin-4-yl-methylsulfanyl]-acetyl}-12-[(4-aminomethyl-phenylamino)-methyl] mutilin trihydrochloride [Example 81]”, the MIC [1, 3] was 0.125 µg/mL and the MIC [2, 4] was 8 µg/mL.

For `CC1C(O)C(C)(CNCCCN)CC(OC(=O)CSc2ccc(CNCc3ccc(CN)cc3)cc2)C2(C)C(C)CCC13CCC(=O)C32.Cl.Cl.Cl.Cl` (stereo not drawn) [Example 115, 12-epi-12-desvinyl-14-O-{{4-[(4-Aminomethyl-benzylamino)-methyl]-phenylsulfanyl}-acetyl}-12-[(3-amino-propylamino)-methyl] mutilin tetrahydrochloride], the MIC [1, 3] was “≦0.03 μg/mL” and the MIC [2, 4] was 0.25 µg/mL.

`CC1C(O)C(C)(CNCCCCCCNC(=N)N)CC(OC(=O)CSC2CCCNCC2)C2(C)C(C)CCC13CCC(=O)C32.Cl.Cl.Cl` (stereo not drawn) [Example 131, 12-epi-12-desvinyl-14-O-[(Azepan-4-ylsulfanyl)-acetyl]-12-[(6-guanidino-hexylamino)-methyl] mutilin trihydrochloride] was tested, and the MIC [1, 3] was 0.06 µg/mL and the MIC [2, 4] was 0.125 µg/mL.
